From patent US9611267B2, “Substituted tricyclic compounds as FGFR inhibitors” (Incyte Corporation, priority 2012, dated 2017)
Like-named read-outs stand apart in the source and are kept apart here.

Assays:
Format in all cases: biochemical
FGFR2 = FGFR2 (Homo sapiens (Human), UniProt P21802); test: FGFR enzymatic assay (FRET peptide phosphorylation), FGFR2; conditions: FGFR2 enzyme 0.01 nM, ATP 100 μM
In short: (§1)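 IC50 values were obtained from variable-slope sigmoidal dose-response fitting of a FRET read-out of peptide phosphorylation. The buffer, described for FGFR3, was 50 mM HEPES pH 7.5 with MgCl2, EGTA, Tween-20 and DTT.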

FGFR1 = FGFR1 (Homo sapiens (Human), UniProt P11362); test: FGFR enzymatic assay (FRET peptide phosphorylation), FGFR1
Sequence of FGFR1 (P11362 22-822): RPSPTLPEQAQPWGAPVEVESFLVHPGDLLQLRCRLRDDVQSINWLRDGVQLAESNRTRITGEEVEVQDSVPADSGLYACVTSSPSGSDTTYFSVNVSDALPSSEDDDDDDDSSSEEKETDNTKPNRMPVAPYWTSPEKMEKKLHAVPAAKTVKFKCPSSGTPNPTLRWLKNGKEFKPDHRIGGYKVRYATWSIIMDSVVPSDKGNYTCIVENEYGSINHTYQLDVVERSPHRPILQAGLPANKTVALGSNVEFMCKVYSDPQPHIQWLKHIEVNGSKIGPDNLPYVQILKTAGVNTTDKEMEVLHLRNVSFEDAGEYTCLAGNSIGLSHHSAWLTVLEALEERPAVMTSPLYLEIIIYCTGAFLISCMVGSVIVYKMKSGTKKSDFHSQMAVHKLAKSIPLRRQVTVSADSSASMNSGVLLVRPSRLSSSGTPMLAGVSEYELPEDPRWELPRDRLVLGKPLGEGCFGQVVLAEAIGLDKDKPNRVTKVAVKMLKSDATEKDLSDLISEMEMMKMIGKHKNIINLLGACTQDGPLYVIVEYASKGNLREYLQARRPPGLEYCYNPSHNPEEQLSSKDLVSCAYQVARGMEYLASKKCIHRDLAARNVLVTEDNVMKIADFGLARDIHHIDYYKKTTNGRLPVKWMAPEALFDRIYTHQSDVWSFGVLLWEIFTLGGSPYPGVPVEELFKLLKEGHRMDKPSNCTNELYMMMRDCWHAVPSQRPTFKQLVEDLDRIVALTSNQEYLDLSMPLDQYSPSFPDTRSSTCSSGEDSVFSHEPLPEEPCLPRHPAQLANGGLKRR
In short: as §1

FGFR3 = FGFR3 (Homo sapiens (Human), UniProt P22607); test: FGFR enzymatic assay (FRET peptide phosphorylation), FGFR3; conditions: FGFR3 enzyme (Millipore), ATP 140 μM
Sequence of FGFR3 (P22607 23-806): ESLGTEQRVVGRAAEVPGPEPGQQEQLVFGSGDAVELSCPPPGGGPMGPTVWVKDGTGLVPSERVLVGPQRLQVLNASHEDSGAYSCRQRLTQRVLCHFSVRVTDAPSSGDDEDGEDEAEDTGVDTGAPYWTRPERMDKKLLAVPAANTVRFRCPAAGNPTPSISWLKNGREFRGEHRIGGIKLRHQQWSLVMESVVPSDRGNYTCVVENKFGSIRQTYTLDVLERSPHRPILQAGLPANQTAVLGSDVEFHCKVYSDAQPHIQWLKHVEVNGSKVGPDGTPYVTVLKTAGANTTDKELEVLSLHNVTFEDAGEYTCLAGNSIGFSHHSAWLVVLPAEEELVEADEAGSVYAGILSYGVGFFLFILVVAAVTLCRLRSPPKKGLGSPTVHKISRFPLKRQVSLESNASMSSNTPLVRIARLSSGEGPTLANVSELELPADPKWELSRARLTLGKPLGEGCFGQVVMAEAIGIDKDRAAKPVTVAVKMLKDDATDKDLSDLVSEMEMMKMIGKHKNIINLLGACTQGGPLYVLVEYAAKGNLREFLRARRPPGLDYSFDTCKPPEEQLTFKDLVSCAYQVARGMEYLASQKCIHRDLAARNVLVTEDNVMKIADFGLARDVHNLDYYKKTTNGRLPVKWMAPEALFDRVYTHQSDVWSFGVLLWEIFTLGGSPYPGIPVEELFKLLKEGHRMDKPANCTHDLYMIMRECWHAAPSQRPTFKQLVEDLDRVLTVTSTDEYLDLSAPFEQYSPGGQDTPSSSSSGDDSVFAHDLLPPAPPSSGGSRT
In short: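 After 5-10 min pre-incubation of FGFR3 with serially diluted compound in pH 7.5 HEPES/MgCl2/EGTA/DTT buffer, the reaction proceeded 1 hr at 25° C. Phosphorylated peptide was detected by FRET, and IC50 was fitted with a variable-slope sigmoid.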

[1] = FGFR1 enzyme 0.02 nM, ATP 210 μM

Measured: IC50

Sequence of FGFR2 (P21802 22-821): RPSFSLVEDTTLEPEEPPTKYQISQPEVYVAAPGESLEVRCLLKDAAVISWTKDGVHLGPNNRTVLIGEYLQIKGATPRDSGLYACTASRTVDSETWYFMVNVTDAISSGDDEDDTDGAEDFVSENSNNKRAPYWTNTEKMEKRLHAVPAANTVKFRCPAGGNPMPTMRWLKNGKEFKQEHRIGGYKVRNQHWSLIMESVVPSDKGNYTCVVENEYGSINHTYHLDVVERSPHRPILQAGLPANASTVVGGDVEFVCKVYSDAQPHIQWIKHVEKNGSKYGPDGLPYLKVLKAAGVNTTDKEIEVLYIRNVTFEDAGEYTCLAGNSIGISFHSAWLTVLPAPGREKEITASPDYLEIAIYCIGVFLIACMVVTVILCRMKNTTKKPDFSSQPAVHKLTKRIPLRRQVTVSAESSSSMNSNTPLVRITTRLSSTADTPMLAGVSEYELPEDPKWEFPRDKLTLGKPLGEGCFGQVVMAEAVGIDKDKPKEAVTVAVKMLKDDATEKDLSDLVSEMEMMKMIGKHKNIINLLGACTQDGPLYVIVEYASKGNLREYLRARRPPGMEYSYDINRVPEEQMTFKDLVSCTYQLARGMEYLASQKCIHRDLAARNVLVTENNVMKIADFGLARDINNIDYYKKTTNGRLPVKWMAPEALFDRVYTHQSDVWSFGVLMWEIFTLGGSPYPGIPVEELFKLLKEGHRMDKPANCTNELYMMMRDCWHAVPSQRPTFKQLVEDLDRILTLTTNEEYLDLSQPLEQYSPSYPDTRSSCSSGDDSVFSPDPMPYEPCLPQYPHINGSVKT

COc1cc(OC)c(Cl)c(N2Cc3cnc4[nH]c(-c5cnn(C)c5)cc4c3N(C)C2=O)c1 [Example 13, 3-(2-Chloro-3,5-dimethoxyphenyl)-1-methyl-8-(1-methyl-1H-pyrazol-4-yl)-1,3,4,7-tetrahydro-2H-pyrrolo[3′,2′:5,6]pyrido[4,3-d]pyrimidin-2-one]
< 100 nM: FGFR2 | FGFR1; [1] | FGFR3

CNC(=O)c1cc2c3c(cnc2[nH]1)CN(c1cc(OC)cc(OC)c1)C(=O)N3C [Example 12, 3-(3,5-Dimethoxyphenyl)-N,1-dimethyl-2-oxo-2,3,4,7-tetrahydro-1H-pyrrolo[3′,2′:5,6]pyrido[4,3-d]pyrimidine-8-carboxamide]
< 100 nM: FGFR2 | FGFR1; [1] | FGFR3

COc1cc(OC)c(F)c(N2Cc3cnc4[nH]c(CCCN5CCN(C6CC6)CC5)cc4c3N(C)C2=O)c1F [Example 118, 8-[3-(4-cyclopropylpiperazin-1-yl)propyl]-3-(2,6-difluoro-3,5-dimethoxyphenyl)-1-methyl-1,3,4,7-tetrahydro-2H-pyrrolo[3′,2′:5,6]pyrido[4,3-d]pyrimidin-2-one]
< 100 nM: FGFR2 | FGFR1; [1] | FGFR3

COc1cc(OC)c(F)c(N2Cc3cnc4[nH]c(CN5CC[C@H](N(C)C)C5)cc4c3C(C)(C)C2=O)c1F [Example 156, 7-(2,6-difluoro-3,5-dimethoxyphenyl)-2-{[(3S)-3-(dimethylamino)pyrrolidin-1-yl]methyl}-9,9-dimethyl-3,6,7,9-tetrahydro-8H-pyrrolo[2,3-c]-2,7-naphthyridin-8-one]
< 100 nM: FGFR2 | FGFR1; [1] | FGFR3

COc1cc(OC)cc(N2Cc3cnc4[nH]c(-c5ccc(N6CCN(C)CC6)cc5)cc4c3N(C)C2=O)c1 [Example 10, 3-(3,5-Dimethoxyphenyl)-1-methyl-8-[4-(4-methylpiperazin-1-yl)phenyl]-1,3,4,7-tetrahydro-2H-pyrrolo[3′,2′:5,6]pyrido[4,3-d]pyrimidin-2-one]
< 100 nM: FGFR2 | FGFR1; [1] | FGFR3

COc1cc(OC)c(F)c(N2Cc3cnc4[nH]ncc4c3N(c3ccccc3OC(F)F)C2=O)c1F [Example 164, 3-(2,6-Difluoro-3,5-dimethoxyphenyl)-1-[2-(difluoromethoxy)phenyl]-1,3,4,7-tetrahydro-2H-pyrazolo[4′,3′:5,6]pyrido[4,3-d]pyrimidin-2-one]
< 100 nM: FGFR2 | FGFR1; [1] | FGFR3

COc1cc(OC)c(F)c(N2Cc3cnc4[nH]ncc4c3N(CCn3cccn3)C2=O)c1F [Example 165, 3-(2,6-Difluoro-3,5-dimethoxyphenyl)-1-[2-(1H-pyrazol-1-yl)ethyl]-1,3,4,7-tetrahydro-2H-pyrazolo[4′,3′:5,6]pyrido[4,3-d]pyrimidin-2-one]
< 100 nM: FGFR2 | FGFR1; [1] | FGFR3

COc1cc(OC)c(F)c(N2Cc3cnc4[nH]c(CN5CCN(C)CC5)cc4c3N(C)C2=O)c1F [Example 129, 3-(2,6-difluoro-3,5-dimethoxyphenyl)-1-methyl-8-[(4-methylpiperazin-1-yl)methyl]-1,3,4,7-tetrahydro-2H-pyrrolo[3′,2′:5,6]pyrido[4,3-d]pyrimidin-2-one]
< 100 nM: FGFR2 | FGFR1; [1] | FGFR3

COc1cc(OC)cc(N2Cc3cnc4[nH]c(C(=O)N5CCN(C)CC5)cc4c3N(C)C2=O)c1 [Example 22, 3-(3,5-Dimethoxyphenyl)-1-methyl-8-[(4-methylpiperazin-1-yl)carbonyl]-1,3,4,7-tetrahydro-2H-pyrrolo[3′,2′:5,6]pyrido[4,3-d]pyrimidin-2-one]
< 100 nM: FGFR2 | FGFR1; [1] | FGFR3

CCN1CCC(Cc2cc3c4c(cnc3[nH]2)CN(c2c(F)c(OC)cc(OC)c2F)C(=O)N4C)CC1 [Example 73, 3-(2,6-difluoro-3,5-dimethoxyphenyl)-8-[(1-ethylpiperidin-4-yl)methyl]-1-methyl-1,3,4,7-tetrahydro-2H-pyrrolo[3′,2′:5,6]pyrido[4,3-d]pyrimidin-2-one]
< 100 nM: FGFR2 | FGFR1; [1] | FGFR3

COc1cc(OC)c(F)c(N2Cc3cnc4c(c3N(c3ccc(C#N)cc3F)C2=O)CC(=O)N4)c1F [Example 125, 4-[3-(2,6-difluoro-3,5-dimethoxyphenyl)-2,8-dioxo-2,3,4,7,8,9-hexahydro-1H-pyrrolo[3′,2′:5,6]pyrido[4,3-d]pyrimidin-1-yl]-3-fluorobenzonitrile]
< 100 nM: FGFR2 | FGFR1; [1] | FGFR3

COc1cc(OC)cc(N2Cc3cnc4[nH]ccc4c3N(C)C2=O)c1 [Example 1, 3-(3,5-Dimethoxyphenyl)-1-methyl-1,3,4,7-tetrahydro-2H-pyrrolo[3′,2′:5,6]pyrido[4,3-d]pyrimidin-2-one]
< 100 nM: FGFR2 | FGFR1; [1] | FGFR3

COc1cc(OC)c(F)c(N2Cc3cnc4[nH]ccc4c3N(CCO)C2=O)c1F [Example 44, 3-(2,6-Difluoro-3,5-dimethoxyphenyl)-1-(2-hydroxyethyl)-1,3,4,7-tetrahydro-2H-pyrrolo[3′,2′:5,6]pyrido[4,3-d]pyrimidin-2-one]
< 100 nM: FGFR2 | FGFR1; [1] | FGFR3

COc1cc(OC)cc(N2Cc3cnc4[nH]c(C5=CCN(C)CC5)cc4c3N(C)C2=O)c1 [Example 17, 3-(3,5-Dimethoxyphenyl)-1-methyl-8-(1-methyl-1,2,3,6-tetrahydropyridin-4-yl)-1,3,4,7-tetrahydro-2H-pyrrolo[3′,2′:5,6]pyrido[4,3-d]pyrimidin-2-one]
< 100 nM: FGFR2 | FGFR1 | FGFR3

COc1cc(OC)c(F)c(N2Cc3cnc4[nH]ccc4c3NC2=O)c1F [Example 103, 3-(2,6-difluoro-3,5-dimethoxyphenyl)-1,3,4,7-tetrahydro-2H-pyrrolo[3′,2′:5,6]pyrido[4,3-d]pyrimidin-2-one]
< 100 nM: FGFR2 | FGFR1; [1] | FGFR3

CCN1CCN(CCc2cc3c4c(cnc3[nH]2)CN(c2c(F)c(OC)cc(OC)c2F)C(=O)N4c2cccc(F)c2)CC1 [Example 229, 3-(2,6-difluoro-3,5-dimethoxyphenyl)-1-(3-fluorophenyl)-8-[2-(4-ethylpiperazin-1-yl)ethyl]-1,3,4,7-tetrahydro-2H-pyrrolo[3′,2′:5,6]pyrido[4,3-d]pyrimidin-2-one]
< 100 nM: FGFR2 | FGFR1; [1] | FGFR3

COc1cc(OC)c(F)c(N2Cc3cnc4[nH]c(CN5CCN(C)CC5)cc4c3N(c3cnn(C)c3)C2=O)c1F [Example 204, 3-(2,6-difluoro-3,5-dimethoxyphenyl)-8-[(4-methylpiperazin-1-yl)methyl]-1-(1-methyl-1H-pyrazol-4-yl)-1,3,4,7-tetrahydro-2H-pyrrolo[3′,2′:5,6]pyrido[4,3-d]pyrimidin-2-one]
< 100 nM: FGFR2 | FGFR1; [1] | FGFR3

COc1cc(OC)c(F)c(N2Cc3cnc4[nH]c(CN5CC(C#N)C5)cc4c3N(C)C2=O)c1F [Example 208, 1-{[3-(2,6-difluoro-3,5-dimethoxyphenyl)-1-methyl-2-oxo-2,3,4,7-tetrahydro-1H-pyrrolo[3′,2′:5,6]pyrido[4,3-d]pyrimidin-8-yl]methyl}azetidine-3-carbonitrile]
< 100 nM: FGFR2 | FGFR1; [1] | FGFR3

COc1cc(OC)c(F)c(N2Cc3cnc4[nH]ncc4c3N(c3cccc(C(=O)NC(C)C)c3F)C2=O)c1F [Example 199, 3-[3-(2,6-difluoro-3,5-dimethoxyphenyl)-2-oxo-2,3,4,7-tetrahydro-1H-pyrazolo[4′,3′:5,6]pyrido[4,3-d]pyrimidin-1-yl]-2-fluoro-N-isopropylbenzamide]
< 100 nM: FGFR2 | FGFR1; [1] | FGFR3

COc1cc(OC)c(F)c(N2Cc3cnc4c(c3N(Cc3cccc(F)c3)C2=O)CC(=O)N4)c1F [Example 65, 3-(2,6-difluoro-3,5-dimethoxyphenyl)-1-(3-fluorobenzyl)-3,4,7,9-tetrahydro-1H-pyrrolo[3′,2′:5,6]pyrido[4,3-d]pyrimidine-2,8-dione]
< 100 nM: FGFR2 | FGFR1; [1] | FGFR3

CCN1CCN(Cc2cc3c4c(cnc3[nH]2)CN(c2c(F)c(OC)cc(OC)c2F)C(=O)N4c2cccc(F)c2F)CC1 [Example 193, 3-(2,6-difluoro-3,5-dimethoxyphenyl)-1-(2,3-difluorophenyl)-8-[(4-ethylpiperazin-1-yl)methyl]-1,3,4,7-tetrahydro-2H-pyrrolo[3′,2′:5,6]pyrido[4,3-d]pyrimidin-2-one]
< 100 nM: FGFR2 | FGFR1; [1] | FGFR3

COc1cc(OC)c(F)c(N2Cc3cnc4[nH]c(CN5CCOCC5)cc4c3N(C)C2=O)c1F [Example 110, 3-(2,6-difluoro-3,5-dimethoxyphenyl)-1-methyl-8-(morpholin-4-ylmethyl)-1,3,4,7-tetrahydro-2H-pyrrolo[3′,2′:5,6]pyrido[4,3-d]pyrimidin-2-one]
< 100 nM: FGFR2 | FGFR1; [1] | FGFR3

COc1cc(OC)c(F)c(N2Cc3cnc4[nH]c(CN5CCN(C)CC5)cc4c3N(c3ccncc3)C2=O)c1F [Example 195, 3-(2,6-difluoro-3,5-dimethoxyphenyl)-8-[(4-methylpiperazin-1-yl)methyl]-1-pyridin-4-yl-1,3,4,7-tetrahydro-2H-pyrrolo[3′,2′:5,6]pyrido[4,3-d]pyrimidin-2-one]
< 100 nM: FGFR2 | FGFR1; [1] | FGFR3
